Measurements: ChEMBL document CHEMBL1128470, “Novel angiotensin II receptor antagonists. Design, synthesis, and in vitro evaluation of dibenzo[a,d]cycloheptene and dibenzo[b,f]oxepin derivatives. Searching for bioisosteres of biphenylyltetrazole using a three-dimensional search technique” (J Med Chem, 1995)

Biological target: T1, Type-1 angiotensin II receptor (Homo sapiens, UniProt P30556)
T1 sequence (P30556 whole entry): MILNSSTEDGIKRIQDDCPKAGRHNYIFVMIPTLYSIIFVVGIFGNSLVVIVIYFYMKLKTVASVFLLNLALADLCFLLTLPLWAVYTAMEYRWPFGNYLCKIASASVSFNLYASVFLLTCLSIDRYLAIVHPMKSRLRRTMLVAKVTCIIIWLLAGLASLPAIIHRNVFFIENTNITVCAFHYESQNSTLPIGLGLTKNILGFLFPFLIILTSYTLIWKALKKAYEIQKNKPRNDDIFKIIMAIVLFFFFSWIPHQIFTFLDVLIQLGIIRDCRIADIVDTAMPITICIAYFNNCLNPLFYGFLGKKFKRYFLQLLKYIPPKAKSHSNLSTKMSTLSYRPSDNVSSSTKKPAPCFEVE
Assay: Ability to displace [125I]AII binding to COS cells transfected with a cDNA encoding human Angiotensin II receptor, type 1
Assay type: cell-based

CCCc1nc2c(C)cc(C)nc2n1Cc1ccc2c(-c3nnn[nH]3)cc3ccccc3c(=O)c2c1
Ki: 0.29 nM

CCCc1nc2c(C)cc(C)nc2n1Cc1ccc2c(c1)Oc1ccccc1C=C2c1nnn[nH]1
Ki: 0.7 nM

CCOc1nc2cccc(C(=O)O)c2n1Cc1ccc2c(c1)Oc1ccccc1C=C2c1nnn[nH]1
Ki: 3.9 nM

CCCCc1nc(Cl)c(C=O)n1Cc1ccc2c(-c3nnn[nH]3)cc3ccccc3c(=O)c2c1
Ki: 12 nM

CCc1cc(OCc2ccc3c(-c4nnn[nH]4)cc4ccccc4c(=O)c3c2)c2ccccc2n1
Ki: 0.65 nM

CCc1cc(OCc2ccc3c(-c4nnn[nH]4)cc4ccccc4c(=O)c3c2)c2cc(C(=O)O)ccc2n1
Ki: 2.7 nM

CCCc1nc2c(C)cc(C)nc2n1Cc1ccc2c(c1)Cc1ccccc1C=C2c1nnn[nH]1
Ki: 0.49 nM

CCOC(=O)c1c(NCc2ccc3c(-c4nnn[nH]4)cc4ccccc4c(=O)c3c2)cc(C)nc1C
Ki: 2.9 nM

CCc1cc(OCc2ccc3c(-c4nnn[nH]4)cc4ccccc4c(=O)c3c2)c2c(n1)CCCC2
Ki: 1.3 nM

CCOc1nc2cccc(C(=O)O)c2n1Cc1ccc2c(-c3nnn[nH]3)cc3ccccc3c(=O)c2c1
Ki: 2.7 nM

CCOC(=O)c1c(OCc2ccc3c(-c4nnn[nH]4)cc4ccccc4c(=O)c3c2)cc(C)nc1C
Ki: 4.3 nM

Cc1cc(OCc2ccc3c(-c4nnn[nH]4)cc4ccccc4c(=O)c3c2)c2c(n1)CCCC2
Ki: 4.3 nM

CCCCC(=O)N(Cc1ccc2c(-c3nnn[nH]3)cc3ccccc3c(=O)c2c1)[C@H](C(=O)O)C(C)C
Ki: 8.7 nM

CCc1cc(OCc2ccc3c(-c4nnn[nH]4)cc4ccccc4c(=O)c3c2)c2nc(OC)ccc2n1
Ki: 0.48 nM

CCc1cc(NCc2ccc3c(-c4nnn[nH]4)cc4ccccc4c(=O)c3c2)n2nccc2n1
Ki: 1.1 nM

CCCCc1nc(Cl)c(C(=O)O)n1Cc1ccc2c(-c3nnn[nH]3)cc3ccccc3c(=O)c2c1
Ki: 2.1 nM

Cc1cc(C)c2nc(C3CC3)n(Cc3ccc4c(-c5nnn[nH]5)cc5ccccc5c(=O)c4c3)c2n1
Ki: 0.45 nM

CCc1nc2c(C)cc(C)nc2n1Cc1ccc2c(-c3nnn[nH]3)cc3ccccc3c(=O)c2c1
Ki: 0.66 nM

CCCCC(=O)N(Cc1ccc2c(c1)Oc1ccccc1C=C2c1nnn[nH]1)[C@H](C(=O)O)C(C)C
Ki: 9.6 nM
